The values below come from patent publication US9487529B2, “Macrocyclic compounds as ALK, FAK and JAK2 inhibitors” (Cephalon, Inc., priority 2011, dated 2016).

Molecules are shown by their SMILES. Where a name gives a salt, the structure may show the parent alone. Read-outs that look alike come from different tables or passages of the source. Where only a bound is given, the exact number is not on record here.

Data set [1] has as its target T1, recombinant human FAK (Homo sapiens, UniProt Q05397).
T1 construct: purchased Invitrogen PV3832; host or cells: baculovirus expression system
Briefly: FAK Enzyme Assay (TRF detection). Format: biochemical. Conditions: 10 μM ATP. How it is done:
Example compounds were tested for their ability to inhibit the kinase activity of baculovirus-expressed recombinant human FAK using the TRF detection system as described above for JAK2. IC50 runs were performed in 96-well Costar high binding plates (#3922). The plates were coated first with 100 μL/well of 10 μg/mL neutravidin in TBS at 37° C. for 2 h, followed by 100 μL/well of 1 μg/mL 15-mer peptide substrate (biotinyl-amino-hexanoyl-EQEDEPEGDYFEWLE-amide) at 37° C. for another hour. The FAK assay mixture (total volume=100 μL/well) consisting of 20 mM HEPES, pH 7.2, 10 μM ATP, 5 mM MgCl2, 0.5 mM DTT, 0.1% BSA, and test compound (diluted in DMSO; 2.5% DMSO final in assay) was then added to the assay plate. Enzyme (10 ng/mL FAK, Invitrogen #PV3832) was added and the reaction was allowed to proceed at room temperature for 30 minutes. Detection of the phosphorylated product was performed by adding 100 μL/well of Eu—N1 labeled PY100 antibody (diluted 1:75000 in antibody dilution buffer). Samples were incubated at room temperature for 1 hour, followed by addition of 100 μL enhancement solution. Plates were agitated for 10 minutes and fluorescence of the resulting solution measured using the PerkinElmer EnVision™ 2102 (or 2104) multi-label plate reader.
(§1) Data analysis was performed using ActivityBase (IDBS, Guilford, UK). IC50 values were calculated by plotting percent inhibition versus log10 of the concentration of compound and fitting to the nonlinear regression sigmoidal dose-response (variable slope) equation in XLFit (IDBS, Guilford, UK).

Data set [2] addresses T2, baculovirus-expressed ALK (Homo sapiens, UniProt Q9UM73).
T2 construct: host or cells: baculovirus expression system
Briefly: ALK Kinase Assay (ELISA/TRF). Format: biochemical. Conditions: 1 μM ATP (Km level); average of two or more determinations; class symbols. The protocol:
Briefly, each 96-well plate was coated with 100 μL/well of 10 μg/mL substrate (GST-PLC-γ) in Tris-buffered saline (TBS). […] The reaction was initiated by adding enzyme (30 ng/mL ALK) and was allowed to proceed at 37° C. for 15 minutes. Detection of the phosphorylated product was performed by adding 100 μL/well of Eu—N1 labeled PT66 antibody (Perkin Elmer #AD0041). […] Data analysis was performed using ActivityBase (IDBS, Guilford, UK). IC50 values were calculated by plotting percent inhibition versus log10 of the concentration of compound and fitting to the nonlinear regression sigmoidal dose-response (variable slope) equation in XLFit (IDBS, Guilford, UK).
In general terms: An ELISA detects its analyte on a solid surface through an enzyme-linked reagent.

For data set [3], the target named is T3, baculovirus-expressed JAK2 (Homo sapiens, UniProt O60674).
T3 construct: host or cells: baculovirus expression system
T3 sequence (O60674 whole entry): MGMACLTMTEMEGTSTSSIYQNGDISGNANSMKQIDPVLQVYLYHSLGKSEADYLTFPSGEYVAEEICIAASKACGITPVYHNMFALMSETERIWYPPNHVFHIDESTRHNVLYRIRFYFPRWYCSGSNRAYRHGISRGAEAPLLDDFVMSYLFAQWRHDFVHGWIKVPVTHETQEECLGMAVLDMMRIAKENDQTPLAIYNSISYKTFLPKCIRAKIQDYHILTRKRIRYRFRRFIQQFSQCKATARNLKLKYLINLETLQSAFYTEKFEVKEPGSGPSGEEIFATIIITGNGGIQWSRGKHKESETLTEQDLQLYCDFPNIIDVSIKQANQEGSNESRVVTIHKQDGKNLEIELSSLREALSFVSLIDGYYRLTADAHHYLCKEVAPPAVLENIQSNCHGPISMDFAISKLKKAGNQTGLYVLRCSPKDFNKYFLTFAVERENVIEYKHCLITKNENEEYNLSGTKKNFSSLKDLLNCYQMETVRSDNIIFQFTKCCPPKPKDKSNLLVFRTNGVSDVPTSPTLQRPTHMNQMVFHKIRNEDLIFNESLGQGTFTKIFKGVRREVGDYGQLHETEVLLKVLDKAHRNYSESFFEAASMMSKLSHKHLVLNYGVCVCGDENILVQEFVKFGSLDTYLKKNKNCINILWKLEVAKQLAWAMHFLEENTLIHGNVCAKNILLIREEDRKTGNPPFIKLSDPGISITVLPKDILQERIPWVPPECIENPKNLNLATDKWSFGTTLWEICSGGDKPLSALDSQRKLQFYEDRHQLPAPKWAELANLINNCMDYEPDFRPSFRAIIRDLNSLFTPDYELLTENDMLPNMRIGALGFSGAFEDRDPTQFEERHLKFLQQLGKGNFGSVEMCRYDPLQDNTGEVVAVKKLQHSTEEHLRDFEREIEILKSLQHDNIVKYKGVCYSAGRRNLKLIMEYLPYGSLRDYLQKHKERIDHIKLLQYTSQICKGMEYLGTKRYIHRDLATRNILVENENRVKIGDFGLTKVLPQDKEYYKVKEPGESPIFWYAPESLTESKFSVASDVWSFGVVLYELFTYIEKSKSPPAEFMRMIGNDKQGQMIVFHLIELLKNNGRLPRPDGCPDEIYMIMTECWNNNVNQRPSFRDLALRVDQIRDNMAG
Briefly: JAK2 Kinase Assay (TRF detection). Conditions: 0.2 μM ATP; average of two or more determinations; class symbols. Format: biochemical. How it is done: Compounds were tested for their ability to inhibit the kinase activity of baculovirus-expressed JAK2 using the TRF detection system. IC50 runs were conducted in 96-well Costar high binding plates (Corning Costar #3922, Corning, N.Y.). The plates were coated first with 100 μL/well of 10 μg/mL Neutravidin (Pierce #31000, Rockford, Ill.) in TBS at 37° C. for 2 hours, followed by 100 μL/well of 1 μg/mL 15-mer peptide substrate (biotinyl-amino-hexanoyl-EQEDEPEGDYFEWLE-amide, Infinity Biotech Research and Resource, Aston, Pa.) at 37° C. for another hour. The JAK2 assay mixture (total volume=100 μL/well) consisting of 20 mM HEPES, pH 7.2, 0.2 μM ATP, 1 mM MnCl2, 0.1% BSA, and test compound (diluted in DMSO; 2.5% DMSO final in assay) was then added to the assay plate. Enzyme (15 ng/ml JAK2) was added and the reaction was allowed to proceed at room temperature for 20 minutes. Detection of the phosphorylated product was performed by adding 100 μL/well of Eu—N1 labeled PY100 antibody (PerkinElmer Life Sciences #AD0041, Boston, Mass.). Incubation at the room temperature then proceeded for 1 hour, followed by addition of 100 μl enhancement solution (PerkinElmer Life Sciences #1244-105, Boston, Mass.). The plate was gently agitated and after thirty minutes, the fluorescence of the resulting solution was measured using the PerkinElmer EnVision™ 2102 (or 2104) multi-label plate reader.
as §1

Data set [4] deals with T4, human insulin receptor cytoplasmic domain (βIRCD) (Homo sapiens, UniProt P06213).
T4 construct: human insulin receptor cytoplasmic domain (βIRCD); host or cells: baculovirus expression system
T4 sequence (P06213 980-1382 limits assumed): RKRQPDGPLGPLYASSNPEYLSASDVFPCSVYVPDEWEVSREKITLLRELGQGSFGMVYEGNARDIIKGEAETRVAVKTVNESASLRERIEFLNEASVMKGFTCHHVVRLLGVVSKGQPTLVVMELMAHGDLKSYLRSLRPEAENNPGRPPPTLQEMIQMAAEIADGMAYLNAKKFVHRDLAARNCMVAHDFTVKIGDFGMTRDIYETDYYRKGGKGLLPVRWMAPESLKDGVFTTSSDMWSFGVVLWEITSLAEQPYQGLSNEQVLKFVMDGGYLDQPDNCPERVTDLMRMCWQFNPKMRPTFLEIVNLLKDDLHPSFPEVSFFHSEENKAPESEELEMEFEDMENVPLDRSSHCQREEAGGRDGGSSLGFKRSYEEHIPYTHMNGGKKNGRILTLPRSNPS
Briefly: Insulin Receptor Kinase Assay (TRF). Format: biochemical. Conditions: 20 μM ATP, read-out: IR IC50. How it is done: Example compounds were tested for their ability to inhibit the kinase activity of baculovirus-expressed human insulin receptor cytoplasmic domain (βIRCD) using the TRF assay as described above for ALK. Phosphorylation of the substrate, recombinant GST-PLC-γ, was detected with a europium-labeled anti-phosphotyrosine antibody and measured by TRF. Each 96-well plate (Greiner#655074) was coated with 100 μL/well of 20 μg/mL substrate solution in TBS. The IR assay mixture (total volume=100 μL/well) consisting of 20 mM HEPES (pH 7.2), 20 μM ATP, 5 mM MnCl2, 0.1% BSA, and test compound (diluted in DMSO; 2.5% DMSO final in assay) was added to the assay plates. Enzyme (20 ng/mL βIRCD) was added and the reaction was allowed to proceed at room temperature for 20 minutes. Detection of the phosphorylated product was performed by adding 100 μL/well of Eu—N1 labeled PY100 antibody (PerkinElmer#AD0160; diluted 1:10,000 in TBS-T containing 0.25% BSA). Incubation at 37° C. for 1 hour was followed by addition of 50 μL enhancement solution (Wallace#1244-105). Plates were agitated for 10 minutes and the fluorescence was measured using the PerkinElmer EnVision™ 2102 or 2104 multi-label plate reader.
as §1

For data set [5] the following is noted: cc_pd bond, CH3CN, 120.0 °C.
[6] abbreviates: average of two or more determinations, class symbols.

T2 sequence (Q9UM73 19-1620): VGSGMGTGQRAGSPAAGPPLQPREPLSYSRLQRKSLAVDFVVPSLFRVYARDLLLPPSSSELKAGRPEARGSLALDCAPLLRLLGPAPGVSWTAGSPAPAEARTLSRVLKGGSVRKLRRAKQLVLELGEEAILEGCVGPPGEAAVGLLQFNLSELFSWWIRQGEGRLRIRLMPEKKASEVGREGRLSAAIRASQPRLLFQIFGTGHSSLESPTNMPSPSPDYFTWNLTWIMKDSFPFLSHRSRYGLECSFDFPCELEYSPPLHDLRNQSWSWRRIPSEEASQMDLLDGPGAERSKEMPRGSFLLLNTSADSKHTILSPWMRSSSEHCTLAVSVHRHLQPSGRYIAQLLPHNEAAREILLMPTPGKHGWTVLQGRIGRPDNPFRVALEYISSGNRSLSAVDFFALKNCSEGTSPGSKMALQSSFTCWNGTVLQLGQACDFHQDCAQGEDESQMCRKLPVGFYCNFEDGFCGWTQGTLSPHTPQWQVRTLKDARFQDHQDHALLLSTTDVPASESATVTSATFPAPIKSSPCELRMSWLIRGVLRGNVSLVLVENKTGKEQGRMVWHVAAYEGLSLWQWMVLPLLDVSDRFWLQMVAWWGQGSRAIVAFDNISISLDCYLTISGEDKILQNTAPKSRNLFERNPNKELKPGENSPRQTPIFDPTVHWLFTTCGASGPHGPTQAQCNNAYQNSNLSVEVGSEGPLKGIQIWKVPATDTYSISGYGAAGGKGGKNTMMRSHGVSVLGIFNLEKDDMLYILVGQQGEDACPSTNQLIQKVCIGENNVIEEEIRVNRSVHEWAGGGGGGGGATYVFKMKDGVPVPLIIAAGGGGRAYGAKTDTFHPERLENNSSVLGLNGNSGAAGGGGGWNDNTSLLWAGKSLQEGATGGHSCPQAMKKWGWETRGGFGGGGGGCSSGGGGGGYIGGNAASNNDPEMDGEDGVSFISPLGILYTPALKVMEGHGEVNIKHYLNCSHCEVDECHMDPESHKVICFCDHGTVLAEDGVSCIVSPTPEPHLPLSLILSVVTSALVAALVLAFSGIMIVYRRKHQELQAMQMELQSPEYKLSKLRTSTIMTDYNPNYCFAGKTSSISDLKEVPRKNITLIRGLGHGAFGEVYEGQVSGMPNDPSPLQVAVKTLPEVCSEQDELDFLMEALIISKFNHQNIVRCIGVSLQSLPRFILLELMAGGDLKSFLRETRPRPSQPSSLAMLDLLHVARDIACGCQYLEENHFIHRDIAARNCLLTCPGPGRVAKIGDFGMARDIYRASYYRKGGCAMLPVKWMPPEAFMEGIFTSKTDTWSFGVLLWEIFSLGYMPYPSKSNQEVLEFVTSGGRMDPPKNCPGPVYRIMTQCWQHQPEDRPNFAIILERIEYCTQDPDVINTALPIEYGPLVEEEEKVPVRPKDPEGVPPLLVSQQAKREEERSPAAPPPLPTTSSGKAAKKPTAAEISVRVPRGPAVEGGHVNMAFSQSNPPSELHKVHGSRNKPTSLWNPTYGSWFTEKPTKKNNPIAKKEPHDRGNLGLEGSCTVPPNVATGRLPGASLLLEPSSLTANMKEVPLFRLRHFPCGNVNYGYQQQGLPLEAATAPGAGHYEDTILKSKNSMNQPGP
T1 sequence (Q05397 whole entry): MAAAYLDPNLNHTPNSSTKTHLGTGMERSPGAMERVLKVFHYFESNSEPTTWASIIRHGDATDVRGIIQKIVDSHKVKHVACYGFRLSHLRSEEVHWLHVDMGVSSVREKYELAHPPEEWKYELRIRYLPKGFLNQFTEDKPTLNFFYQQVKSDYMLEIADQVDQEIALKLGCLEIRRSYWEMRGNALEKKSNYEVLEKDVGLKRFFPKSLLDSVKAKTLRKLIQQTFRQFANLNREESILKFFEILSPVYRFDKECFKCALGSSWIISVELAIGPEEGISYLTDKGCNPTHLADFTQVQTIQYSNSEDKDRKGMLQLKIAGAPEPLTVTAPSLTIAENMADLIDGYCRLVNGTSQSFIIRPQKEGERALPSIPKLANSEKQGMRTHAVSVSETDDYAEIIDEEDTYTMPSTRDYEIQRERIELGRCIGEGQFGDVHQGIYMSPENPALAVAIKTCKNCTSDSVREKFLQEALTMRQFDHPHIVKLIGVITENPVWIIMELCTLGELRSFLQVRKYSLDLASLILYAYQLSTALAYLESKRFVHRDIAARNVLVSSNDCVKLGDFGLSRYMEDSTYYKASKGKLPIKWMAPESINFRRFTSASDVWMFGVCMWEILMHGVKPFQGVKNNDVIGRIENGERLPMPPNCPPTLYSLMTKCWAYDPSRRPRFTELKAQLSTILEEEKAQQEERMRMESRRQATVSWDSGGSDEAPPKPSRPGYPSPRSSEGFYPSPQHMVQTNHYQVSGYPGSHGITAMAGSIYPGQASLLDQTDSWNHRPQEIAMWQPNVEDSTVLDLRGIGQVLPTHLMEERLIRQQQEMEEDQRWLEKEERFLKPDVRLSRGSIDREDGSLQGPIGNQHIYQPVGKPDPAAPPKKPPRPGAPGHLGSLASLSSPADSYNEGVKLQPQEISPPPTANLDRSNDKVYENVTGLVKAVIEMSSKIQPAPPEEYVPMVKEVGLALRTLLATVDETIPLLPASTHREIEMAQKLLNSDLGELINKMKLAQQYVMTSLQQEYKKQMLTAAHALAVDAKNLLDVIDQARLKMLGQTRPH

By IC50 is commonly meant the point on the concentration scale where inhibition reaches its midpoint. By melting point is commonly meant the temperature, or range, at which the solid turns liquid. `CN1CCN(c2ccc3cc2CCc2ccc(S(C)(=O)=O)c(c2)Nc2nc(ncc2Cl)N3)CC1` [Example 19, 6-Chloro-10-(methanesulfonyl)-17-(4-methylpiperazin-1-yl)-2,4,8,22-tetraazatetracyclo[14.3.1.1^3,7.1^9,13]docosa-1(20),3(22),4,6,9(21),10,12,16,18-nonaene] returned a melting point of over 250 °C. In addition, the IC50 in data set [1] (setting [6]) lay within 10 to 100 nM. Moreover, the IC50 in data set [2] lay in the range of 10 to 100 nM. In data set [3], this compound had an IC50 of 10 to 100 nM. The IC50 in data set [4] (setting [6]) was 101 to 1000 nM.
Take `CC(C)S(=O)(=O)c1ccc2cc1Nc1nc(ncc1Cl)Nc1ccc(N3CCN(C)CC3)c(c1)CC2` [Example 12, 6-Chloro-10-(propane-2-sulfonyl)-17-(4-methylpiperazin-1-yl)-2,4,8,22-tetraazatetracyclo[14.3.1.1^3,7.1^9,13]docosa-1(20),3(22),4,6,9(21),10,12,16,18-nonaene]: the melting point is over 250 °C. Besides, the IC50 in data set [1] (setting [6]) was under 10 nM. In data set [3], this compound yielded an IC50 of under 10 nM. Also, the IC50 in data set [4] (setting [6]) fell in the range of 10 to 100 nM.
Consider `CC(C)S(=O)(=O)c1ccc2cc1Nc1nc(ncc1Cl)Nc1ccc(N3CCN(C)CC3)c(c1)/C=C\2` [Example 11, (14Z)-6-Chloro-10-(propane-2-sulfonyl)-17-(4-methylpiperazin-1-yl)-2,4,8,22-tetraazatetracyclo[14.3.1.1^3,7.1^9,13]docosa-1(20),3(22),4,6,9(21),10,12,14,16,18-decaene Trifluoroacetate (1:1)], for which, in data set [5] (from C=Cc1cc(Nc2ncc(Cl)c(Nc3cc(Br)ccc3S(=O)(=O)C(C)C)n2)ccc1N1CCN(C)CC1, Pd(OAc)2 / P(o-tolyl)3 / Et3N, 65.0 mM, 2.0 h), the ring closure, yield of all isomers was 32%. Moreover, the IC50 in data set [1] (setting [6]) is 10 to 100 nM; in data set [2], 10 to 100 nM; in data set [3], under 10 nM; in data set [4] (setting [6]), 1000 to 10000 nM.
The compound `COc1cc(C2CCN(C)CC2)c2cc1Nc1ncc(Cl)c(n1)Nc1cc(ccc1N(C)S(C)(=O)=O)/C=C\2` [Example 7, (14Z)-6-Chloro-10-(2-methanesulfonyl-methyl-amino)-17-(1-methyl-piperidin-4-yl)-19-methoxy-2,4,8,22-tetraazatetracyclo[14.3.1.1^3,7.1^9,13]docosa-1(20),3(22),4,6,9(21),10,12,14,16,18-decaene] showed a melting point of 244 to 246 °C. In addition, the IC50 in data set [1] (setting [6]) was under 10 nM. Further, the IC50 in data set [2] lay in the range of 10 to 100 nM. In data set [3], this compound showed an IC50 of 1000 to 10000 nM. Besides, the IC50 in data set [4] (given as numeric bound) was over 2000 nM.
As to `COc1cc(N2CCN(C)CC2)c2cc1Nc1ncc(Cl)c(n1)Nc1cc(ccc1N(C)S(C)(=O)=O)/C=C\2` [Example 4, (14Z)-6-Chloro-10-(2-methanesulfonyl-methyl-amino)-17-(4-methylpiperazin-1-yl)-19-methoxy-2,4,8,22-tetraazatetracyclo[14.3.1.1^3,7.1^9,13]docosa-1(20),3(22),4,6,9(21),10,12,14,16,18-decaene], the melting point lay within 278 to 280 °C. In data set [5] (from C=Cc1ccc(N(C)S(C)(=O)=O)c(Nc2nc(Nc3cc(Br)c(N4CCN(C)CC4)cc3OC)ncc2Cl)c1, Pd(OAc)2 / tri-o-tolylphosphine, Et3N, 46.7 mM, 0.25 h), this compound gave a ring closure, yield of all isomers of 72%. For the same compound, the IC50 in data set [1] (setting [6]) was under 10 nM. Also, the IC50 in data set [1] (given as numeric bound) was over 3000 nM. Besides, in data set [4] (setting [6]), the IC50 was in the range of 1000 to 10000 nM. The IC50 in data set [4] (given as numeric bound) is over 2000 nM.
